Measurements from article PMC7969873 (Cell Reports, 2021).

test system: SARS-CoV-2; format: cell-based; conditions: 250 nM, Vero E6 cells, 48 h

Row | Structure (SMILES) | antiviral activity (prevention of viral CPE) in primary screen
1 | COc1cc2ncnc(Oc3cccc(NC(=O)Nc4cc(C(C)(C)C(F)(F)F)on4)c3)c2cc1OC [CEP-32496] | antiviral activity
2 | CS(=O)(=O)N1CCc2c(-c3cnc(N)nc3)nc(N3CCOCC3)nc21 [CH5132799] | antiviral activity
3 | CCS(=O)(=O)Nc1ccc2c(c1)/C(=C(/Nc1ccc(CN3CCCCC3)cc1)c1ccccc1)C(=O)N2 [Hesperadin] | antiviral activity
4 | O=C1NC(=O)/C(=C/c2ccc3c(c2)OC(F)(F)O3)S1 [AS-604850] | antiviral activity
5 | CSc1cccc(Nc2ncc3cc(-c4c(Cl)cccc4Cl)c(=O)n(C)c3n2)c1 [PD173955] | antiviral activity
6 | CS(=O)(=O)N1CCN(Cc2cc3nc(-c4cccc5[nH]ncc45)nc(N4CCOCC4)c3s2)CC1 [GDC-0941, Pictilisib] | antiviral activity
7 | CNC(=O)Nc1ccc(-c2nc(N3CC4CCC(C3)O4)c3cnn(C4CCC5(CC4)OCCO5)c3n2)cc1 [WYE-125132] | antiviral activity
8 | FC(F)c1nc2ccccc2n1-c1nc(N2CCOCC2)nc(N2CCOCC2)n1 [ZSTK474] | antiviral activity
9 | N#C/C(=C/c1ccc(O)c(O)c1)C(=O)NCc1ccccc1 [AG-490] | antiviral activity
10 | Cc1ccc(C(=O)Nc2cccc(C(F)(F)F)c2)cc1Nc1nc(-c2cccnc2)nc2c1cnn2C [NVP-BHG712] | antiviral activity
11 | COc1cc2c(Nc3ccc(NC(=O)c4ccccc4)cc3)ncnc2cc1OCCCN1CCOCC1 [ZM 447439] | antiviral activity
12 | Cn1cc(-c2ccc3nnc(C(F)(F)c4ccc5ncccc5c4)n3n2)cn1 [JNJ-38877605] | antiviral activity
13 | C[C@H](Nc1ncnc2nc[nH]c12)c1cc2cccc(Cl)c2c(=O)n1-c1ccccc1 [IPI-145] | antiviral activity
14 | Nc1ccc(C(=O)Nc2cccc(-c3nc(N4CCOCC4)c4oc5ncccc5c4n3)c2)cn1 [YM201636] | antiviral activity
15 | CCCCCCCCCCCCCCCCCCOP(=O)([O-])OC1CC[N+](C)(C)CC1 [Perifosine] | antiviral activity
16 | Nc1ncnc2c1c(-c1cnc3[nH]ccc3c1)nn2C1CCCC1 [PP121] | antiviral activity
17 | O=C1c2ccc(Nc3ccc(F)cc3F)cc2CCc2ccc(OC[C@H](O)CO)cc21 [Skepinone-L] | antiviral activity
18 | NC(=O)c1ccc(N(C(N)=O)c2c(F)cccc2F)nc1-c1ccc(F)cc1F [VX-702] | antiviral activity
19 | CO[C@H]1CC[C@H](N2C(=O)CNc3ncc(-c4ccc(C(C)(C)O)nc4)nc32)CC1 [CC-223, Onatasertib] | antiviral activity
20 | COc1cc2nccc(Oc3ccc(NC(=O)Nc4ccc(F)cc4F)c(F)c3)c2cc1OC [Ki8751] | antiviral activity
21 | Cc1c(CN2CCN(C(=O)[C@H](C)O)CC2)sc2c(N3CCOCC3)nc(-c3cnc(N)nc3)nc12 [GDC-0980] | antiviral activity
22 | Cn1cc(C2=C(c3cn(C4CCN(Cc5ccccn5)CC4)c4ccccc34)C(=O)NC2=O)c2ccccc21 [Enzastaurin] | antiviral activity
23 | CC(=O)Nc1nc(C)c(-c2ccc(Cl)c(S(=O)(=O)NCCO)c2)s1 [PIK-93] | antiviral activity
24 | O=c1ncn2nc(Sc3ccc(F)cc3F)ccc2c1-c1c(Cl)cccc1Cl [VX-745] | antiviral activity
25 | COc1ccc(-c2ccc3c(N4CCOC[C@@H]4C)nc(N4CCOC[C@@H]4C)nc3n2)cc1CO [AZD8055] | antiviral activity
